For four molecules, inhibition and Activity results are on record in ChEMBL document CHEMBL4715817, “Python Cathelicidin CATHPb1 Protects against Multidrug-Resistant Staphylococcal Infections by Antimicrobial-Immunomodulatory Duality” (J Med Chem, 2018).

Calls of active or inactive are those of the source. The rule behind the calls is not given here. Peptide text beside a SMILES is read from it.

The subject of assay [1] is Macrophage. Description: Immunomodulatory activity in mouse peritoneal macrophage assessed as inhibition of LPS-induced MCP-1 level at 5 to 20 ug/ml measured after 6 hrs by qRT-PCR analysis. In kind it is functional, tissue-based. Particulars: dose 5-20 µg/ml. (In qPCR the cycle at which signal appears reflects the starting amount.)
The subject of assay [2] is Macrophage. As to the kind of experiment: Immunomodulatory activity in mouse peritoneal macrophage assessed as inhibition of LPS-induced IL-6 level at 5 to 20 ug/ml measured after 6 hrs by qRT-PCR analysis. The note with it: dose 5-20 µg/ml. In kind it is functional, tissue-based.
The subject of assay [3] is Macrophage. As to the kind of experiment: Immunomodulatory activity in mouse peritoneal macrophage assessed as inhibition of LPS-induced TNF-alpha level at 5 to 20 ug/ml measured after 24 hrs by ELISA. Format: functional, tissue-based. The note with it: dose 5-20 µg/ml. A general note: An ELISA detects its analyte on a solid surface through an enzyme-linked reagent.
In assay [4] the test system is Macrophage. Description: Immunomodulatory activity in mouse peritoneal macrophage assessed as inhibition of LPS-induced TNF-alpha level at 5 to 20 ug/ml measured after 6 hrs by qRT-PCR analysis. In kind it is functional, tissue-based. The note with it: dose 5-20 µg/ml.
Assay [5] concerns Macrophage. As to the kind of experiment: Immunomodulatory activity in mouse peritoneal macrophage assessed as inhibition of LPS-induced IL-1beta level at 5 to 20 ug/ml measured after 6 hrs by qRT-PCR analysis. In kind it is functional, tissue-based. The note with it: dose 5-20 µg/ml.
Assay [6] relates to Macrophage. Description: Immunomodulatory activity in mouse peritoneal macrophage assessed as inhibition of LPS-induced MCP-1 level at 5 to 20 ug/ml measured after 24 hrs by ELISA. Format: functional, tissue-based. Particulars: dose 5-20 µg/ml.
Assay [7] deals with Macrophage. Description: Immunomodulatory activity in mouse peritoneal macrophage assessed as inhibition of LPS-induced IL-1beta level at 5 to 20 ug/ml measured after 24 hrs by ELISA. Format: functional, tissue-based. Particulars: dose 5-20 µg/ml.
The subject of assay [8] is Macrophage. As to the kind of experiment: Immunomodulatory activity in mouse peritoneal macrophage assessed as inhibition of LPS-induced IL-6 level at 5 to 20 ug/ml measured after 24 hrs by ELISA. In kind it is functional, tissue-based. Particulars: dose 5-20 µg/ml.
Assay [9] concerns Macrophage. Description: Immunomodulatory activity in mouse peritoneal macrophage assessed as inhibition of LPS-induced IL-6 level at 20 ug/ml measured after 24 hrs by ELISA. In kind it is functional, tissue-based. Particulars: dose 20.0 µg/ml.
The subject of assay [10] is Macrophage. As to the kind of experiment: Immunomodulatory activity in mouse peritoneal macrophage assessed as inhibition of LPS-induced TNF-alpha level at 20 ug/ml measured after 6 hrs by qRT-PCR analysis. Format: functional, tissue-based. Particulars: dose 20.0 µg/ml.
For assay [11], the system named is Macrophage. As to the kind of experiment: Immunomodulatory activity in mouse peritoneal macrophage assessed as inhibition of LPS-induced IL-1beta level at 20 ug/ml measured after 24 hrs by ELISA. In kind it is functional, tissue-based. The note with it: dose 20.0 µg/ml.
Assay [12] relates to Macrophage. Description: Immunomodulatory activity in mouse peritoneal macrophage assessed as inhibition of LPS-induced IL-6 level at 20 ug/ml measured after 6 hrs by qRT-PCR analysis. Format: functional, tissue-based. Particulars: dose 20.0 µg/ml.
Assay [13] relates to Macrophage. As to the kind of experiment: Immunomodulatory activity in mouse peritoneal macrophage assessed as inhibition of LPS-induced IL-1beta level at 20 ug/ml measured after 6 hrs by qRT-PCR analysis. The note with it: dose 20.0 µg/ml. Format: functional, tissue-based.
In assay [14] the test system is Macrophage. As to the kind of experiment: Immunomodulatory activity in mouse peritoneal macrophage assessed as inhibition of LPS-induced TNF-alpha level at 20 ug/ml measured after 24 hrs by ELISA. In kind it is functional, tissue-based. The note with it: dose 20.0 µg/ml.
Assay [15] in a line: Immunomodulatory activity in mouse peritoneal macrophage assessed as inhibition of LPS-induced IL-6 level measured after 24 hrs by ELISA. Format: functional. Set-up: scale not given: the % may be the effect or the level left. Particulars: dose 5-20 µg/ml, at 5 to 20 µg/mL.
Assay [16] concerns Staphylococcus aureus. Description: In vivo antibacterial activity against methicillin sensitive Staphylococcus aureus ATCC 25923 infected in kunming mouse assessed as increase in survival rate at 10 mg/kg, ip administered 4 hrs after infection and measured up to 7 days after infection relative to control. Format: functional. The note with it: time day <=7.

As to `CC[C@H](C)[C@H](NC(=O)[C@H](CO)NC(=O)[C@H](CO)NC(=O)CNC(=O)CNC(=O)CNC(=O)[C@H](C)NC(=O)[C@H](Cc1ccccc1)NC(=O)[C@H](Cc1ccccc1)NC(=O)[C@H](CCCCN)NC(=O)[C@H](CCCCN)NC(=O)[C@H](CC(C)C)NC(=O)[C@H](CCCNC(=N)N)NC(=O)[C@H](CCCNC(=N)N)NC(=O)[C@H](CCSC)NC(=O)[C@H](Cc1ccccc1)NC(=O)[C@H](CCCCN)NC(=O)[C@H](CCCNC(=N)N)NC(=O)[C@H](Cc1ccccc1)NC(=O)CNC(=O)[C@H](CC(N)=O)NC(=O)[C@H](CCCNC(=N)N)NC(=O)[C@@H](N)CCCCN)C(=O)N[C@@H](C)C(=O)N[C@@H](Cc1cnc[nH]1)C(=O)N[C@H](C(=O)N[C@@H](CCCCN)C(=O)N[C@@H](CC(C)C)C(=O)N[C@@H](Cc1cnc[nH]1)C(=O)O)[C@@H](C)CC` (H-KRNGFRKFMRRLKKFFAGGGSSIAHIKLH-OH), the inhibition result in assay [1], in assay [2], in assay [3], in assay [4], in assay [5] and in [6] was “Active” throughout. Also, the inhibition entry in [7] and in [8] was “Active” throughout.
For the molecule `CSCC[C@H](NC(=O)[C@H](C)NC(=O)[C@H](CCCNC(=N)N)NC(=O)[C@H](CC(C)C)NC(=O)[C@H](CCCNC(=N)N)NC(=O)[C@H](CCCNC(=N)N)NC(=O)[C@H](CCC(N)=O)NC(=O)[C@@H]1CCCN1C(=O)[C@H](C)NC(=O)[C@H](C)NC(=O)[C@@H](N)CCCNC(=N)N)C(=O)N[C@@H](C)C(=O)N[C@@H](CCCNC(=N)N)C(=O)N[C@@H](CC(C)C)C(=O)N[C@@H](CCCCN)C(=O)N[C@@H](CCCCN)C(=O)N[C@@H](Cc1ccccc1)C(=O)N[C@@H](C)C(=O)N[C@@H](CCC(=O)O)C(=O)N[C@@H](C)C(=O)NCC(=O)NCC(=O)N[C@@H](C)C(=O)N[C@@H](CC(=O)O)C(=O)N1CCC[C@H]1C(=O)N[C@@H](CC(=O)O)C(=O)N[C@@H](CO)C(=O)NCC(=O)NCC(=O)N[C@@H](CC(C)C)C(=O)N[C@@H](CCCNC(=N)N)C(=O)N[C@@H](C)C(=O)N[C@@H](CCCNC(=N)N)C(=O)N[C@@H](Cc1ccccc1)C(=O)N1CCC[C@H]1C(=O)N[C@@H](CCC(=O)O)C(=O)N[C@@H](CCCNC(=N)N)C(=O)O` (H-RAAPQRRLRAMARLKKFAEAGGADPDSGGLRARFPER-OH), the inhibition result in assay [9], in [10], in assay [11], in [12], in assay [13] and in [14] was “Active” throughout.
`CC[C@H](C)[C@H](NC(=O)[C@H](CCCNC(=N)N)NC(=O)[C@H](Cc1c[nH]c2ccccc12)NC(=O)CNC(=O)[C@H](Cc1ccc(O)cc1)NC(=O)[C@H](CCCNC(=N)N)NC(=O)[C@H](CCCNC(=N)N)NC(=O)[C@H](C)NC(=O)[C@H](Cc1ccccc1)NC(=O)[C@H](CCCNC(=N)N)NC(=O)CNC(=O)[C@H](C)NC(=O)CNC(=O)[C@H](CCCNC(=N)N)NC(=O)[C@@H](NC(=O)[C@H](Cc1ccccc1)NC(=O)[C@H](CCCNC(=N)N)NC(=O)[C@H](CCCNC(=N)N)NC(=O)[C@H](Cc1c[nH]c2ccccc12)NC(=O)[C@H](CCCNC(=N)N)NC(=O)[C@H](CO)NC(=O)[C@H](CCCNC(=N)N)NC(=O)[C@@H](N)[C@@H](C)O)[C@@H](C)CC)C(=O)N[C@@H](C)C(=O)N[C@@H](CC(C)C)C(=O)NCC(=O)N[C@@H](CC(C)C)C(=O)N[C@H](C(=O)NCC(=O)O)C(C)C` (H-TRSRWRRFIRGAGRFARRYGWRIALGLVG-OH): the inhibition result in [1], in assay [2], in [3], in assay [4], in assay [5] and in [6] was “Active” in each case. Also, the inhibition result in assay [7] and in assay [8] was “Active” throughout. The Activity in [15] came out at 65.59%.
Turning to `CN[C@H](CC(C)C)C(=O)N[C@H]1C(=O)N[C@@H](CC(N)=O)C(=O)N[C@H]2C(=O)N[C@H]3C(=O)N[C@H](C(=O)N[C@H](C(=O)O)c4cc(O)cc(O)c4-c4cc3ccc4O)[C@H](O)c3ccc(c(Cl)c3)Oc3cc2cc(c3O[C@@H]2O[C@H](CO)[C@@H](O)[C@H](O)[C@H]2O[C@H]2C[C@](C)(N)[C@H](O)[C@H](C)O2)Oc2ccc(cc2Cl)[C@H]1O` [VANCOMYCIN], in assay [16], the Activity came to 35%.
